Data reported in patent US7378397B2 (The Provost, Fellows and Scholars of the College of the …, priority 2000, dated 2008).
Converted amounts (≈) assume the structure as drawn. Where a SMILES comes first, the peptide text is derived from it. [ ]: non-standard residue; d: D form. The star is where a group is joined. AMC = Cc1cc(=O)oc2cc(N*)ccc12; pGlu = O=C1CC[C@@H](C(=O)O)N1; Phg = N[C@H](C(=O)O)c1ccccc1

Legend:
[1] = target: T1, TRH-DE (Sus scrofa, UniProt A0A287AP33); test: continuous coupled fluorometric TRH-DE assay (TRHAMC substrate, DPP-IV coupling enzyme); format: biochemical, porcine; details: for inhibition at 1000 µM: peptide 1 mM
T1 construct: The inventor purified TRH-DE from porcine brain according to purification procedures previously published by Dr. K. Bauer; from tissue; host or cells: porcine brain (TRH-DE); bovine kidney (DPP-IV, gift from Dr. C. H. Williams)
T1 sequence (A0A287AP33 1-1066): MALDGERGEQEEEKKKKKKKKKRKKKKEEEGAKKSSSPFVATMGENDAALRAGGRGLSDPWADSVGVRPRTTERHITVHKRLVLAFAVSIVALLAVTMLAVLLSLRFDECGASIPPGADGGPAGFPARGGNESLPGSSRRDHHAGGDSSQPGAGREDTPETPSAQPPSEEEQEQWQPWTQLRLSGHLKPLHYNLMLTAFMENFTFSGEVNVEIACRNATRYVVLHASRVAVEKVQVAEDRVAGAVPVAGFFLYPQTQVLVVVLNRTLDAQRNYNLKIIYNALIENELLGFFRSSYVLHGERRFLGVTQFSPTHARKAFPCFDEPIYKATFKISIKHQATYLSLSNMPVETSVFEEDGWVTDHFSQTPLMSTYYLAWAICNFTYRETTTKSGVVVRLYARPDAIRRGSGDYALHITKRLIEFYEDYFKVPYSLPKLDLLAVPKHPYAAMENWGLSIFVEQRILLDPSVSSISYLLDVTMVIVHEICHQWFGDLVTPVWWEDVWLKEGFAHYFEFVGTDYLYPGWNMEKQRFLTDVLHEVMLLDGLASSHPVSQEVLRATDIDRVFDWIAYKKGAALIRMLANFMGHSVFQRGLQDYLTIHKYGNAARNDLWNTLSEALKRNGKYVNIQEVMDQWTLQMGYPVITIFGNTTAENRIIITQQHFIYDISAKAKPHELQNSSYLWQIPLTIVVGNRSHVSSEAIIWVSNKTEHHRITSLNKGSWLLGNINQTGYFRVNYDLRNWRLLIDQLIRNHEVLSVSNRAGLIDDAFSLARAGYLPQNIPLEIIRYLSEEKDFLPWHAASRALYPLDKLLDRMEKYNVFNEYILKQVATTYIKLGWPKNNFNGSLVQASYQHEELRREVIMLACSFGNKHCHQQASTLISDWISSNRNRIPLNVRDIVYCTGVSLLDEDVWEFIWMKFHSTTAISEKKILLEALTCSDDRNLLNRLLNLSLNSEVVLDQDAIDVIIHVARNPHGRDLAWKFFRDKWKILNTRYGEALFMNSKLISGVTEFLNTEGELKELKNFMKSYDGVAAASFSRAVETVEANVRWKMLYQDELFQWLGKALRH
Protocol: (§1) The inventor purified TRH-DE from porcine brain according to purification procedures previously published by Dr. K. Bauer, (Max-Planck-Institut, Hannover, Germany) (1). TRH-DE was purified almost 20,000 fold. […] Dipeptidyl peptidase IV (DPP-IV) (EC 3.4.14.5), purified from bovine kidney (7.7 mg ml^−1, specific activity of 17.5 U mg^−1 with Gly-ProAMC as substrate), was obtained as a gilt from Dr. C. H. Williams (Queen's University Belfast, U.K). (DPP-IV was used as the coupling enzyme used in the fluorometric assays).
(§2) One unit (U) of enzyme activity was defined as that amount catalysing the formation of one μmol of product in one minute under the standard conditions employed. All incubations in the assays described below were carried out in 20 mM potassium phosphate buffer, pH 7.5, at 37° C.
Kinetic analysis of peptides that are not hydrolysed by TRH-DE. A recently-developed continuous coupled fluorometric assay (23) was used to investigate the ability of those library peptides that were not hydrolysed by TRH-DE to inhibit TRHAMC degradation by TRH-DE. In this assay, TRHAMC is the substrate and dipeptidyl peptidase IV (DPP-IV) (EC 3.4.14.5) is the coupling enzyme. The reaction sequence is:
The reaction was monitored continuously by measuring the increase in AMC fluorescence. A linear progress curve with no discernible lag period was observed when the reaction was monitored over a period of 10 minutes. Nevertheless, data sampling was not commenced until 100 s from the start of the reaction to ensure measurements were taken after a steady state had been reached (see Ref. 23).
In a preliminary experiment, the peptides were screened for their ability to inhibit TRH-DE activity. The initial rate of TRHAMC hydrolysis by TRH-DE was measured by incubating 5 μM TRHAMC with 1.23 μg DPP-IV and 0.32 μg TRH-DE, both in the absence and presence of each library peptide (1 mM final concentration) under standard assay conditions (23). In each case the percentage inhibition (i%) was calculated using the equation i%=100(1-vi/vo), where vi and vo are the initial velocities in the presence and absence of peptide, respectively.
Since these peptides were poor inhibitors they were not examined further. The Ki values for the remainder of the peptides were determined by measuring their effects on TRHAMC degradation by TRH-DE using the continuous assay. Data were collected in duplicate at five different substrate concentrations and at least three different concentrations of each peptide.
Reversibility and time dependence of the inhibition produced by Glp-Gln-ProNH2, Glp-Asn-ProNH2 and Glp-Asn-ProAMC were examined by initially preincubating TRH-DE with each peptide at 37° C. for various periods up to 75 min. To investigate time dependence, the enzyme-peptide solution was subsequently added to the reaction mixture containing TRHAMC, DPP-IV, buffer and peptide, and TRH-DE activity was measured using the continuous assay. The final concentration of Glp-Gln-ProNH2, Glp-Asn-ProNH2 and Glp-Asn-ProAMC used was 400, 160 and 1 μM, respectively. […] TRH-DE activity was not affected by pre-incubation at 37° C.
Fluorescence measurements were made using a Perkin Elmer LS 50B Luminescence Spectrometer fitted with a thernostated cell holder. Wavelengths for excitation and emission were set at 370 nm and 440 nm, respectively, with slit widths of 10 nm and 5 nm, respectively.

[2] = physchem
[3] = target: TRH receptors in rat cortical membranes; test: radioligand binding to ^3H-3MeHis-TRH-labelled receptors in rat cortex; details: competition with 6-8 nM ^3H-3MeHis-TRH, Cheng-Prusoff
Protocol: Evaluation of the ability of TRH, Glp-Asn-ProNH2, and Glp-Asn-ProAMC to bind to ^3H-3MeHis-TRH-labelled receptors in rat cortex: Radioligand binding assays were conducted to investigate the possibility that the two TRH-DE inhibitors might exert their effects by acting independently at TRH receptors in the brain.
Cortex tissue from male Sprague-Dawley rats (250 g) was dissected out, weighed and homogenised in 30 volumes of ice-cold sodium phosphate buffer (0.02 M, pH 7.5). The homogenates were centrifuged at 30,000 g at 4° C. for 30 min. The supernatant was discarded and the pellet was resuspended at 100 mg wet wt/ml in buffer containing 177 μM bacitracin. […] Non-specific binding was defined in the presence of 10 μM TRH.
The statistical significance of differences between behavioural effects of treatments was determined using the Student's t-test or ANOVA, followed by a post-ANOVA test, as indicated. Radioligand binding data were analysed using non-linear curve fitting software (Prism, Graph Pad Software Inc.). IC50 values calculated from competition experiments were converted to Ki values using the Cheng-Prusoff (41) equation Ki=IC50/(1+L/Kd), where L=ligand concentration and Kd=the apparent dissociation constant for [^3H]-[3-MeHis]TRH.

[4] = system: Male Wistar rats; test: behavioural effects (WDS, locomotion) after i.c.v. administration; format: in vivo, rat; details: 5 μg alone, 30 min
Protocol: Methods: Behavioural studies were conducted using experimentally naïve Male Wistar rats (200-250 g) maintained in a temperature controlled (21° C.), artificially-lighted (12 hr light cycle) room with free access to food and water. Behavioural effects of […] following intra-cerebroventricular (i.c.v.) administration: Animals were implanted with guide cannula aimed at the lateral cerebral ventricles (AP-0.92 mm, ML-1.5 mm, DV-2.6 mm relative to Bregma, atlas of Paxinos & Watson) under halothane anaesthesia. One week following surgery placement of the cannulae was assessed by the ability of a microinjection of angiotensin II (200 ng in 1 μl) to induce drinking behaviour. […] They were then administered either vehicle (1 μl 0.9% saline) or […] (5 μg in 1 μl) followed 1 minute later by vehicle (1 μl 0.9% saline) or TRH (5 μg in 1 μl). One minute after the last i.c.v. injection animals were placed back into the perspex cage and their behaviour monitored by a computer automated tracking system for 30 minutes (Ethovision Pro, Noldus) to provide measures of locomotor activity. Animals were videotaped for subsequent blind analysis of WDS behaviour by a trained observer. A threshold dose of 5 μg TRH was chosen for i.c.v. administration so that if […] enhanced responses to TRH, this would be clearly visible. The statistical significance of differences between behavioural effects of treatments was determined using the Student's t-test or ANOVA, followed by a post-ANOVA test, as indicated. Radioligand binding data were analysed using non-linear curve fitting software (Prism, Graph Pad Software Inc.). IC50 values calculated from competition experiments were converted to Ki values using the Cheng-Prusoff (41) equation Ki=IC50/(1+L/Kd), where L=ligand concentration and Kd=the apparent dissociation constant for [^3[…].

[5] = target: T1, TRH-DE; test: HPLC assay of peptide hydrolysis by TRH-DE (Glp production); format: biochemical, porcine; details: for hydrolysis by TRH-DE (release of Glp): 1 mM peptide incubated with TRH-DE 18 h at 37° C., HPLC; for Rate of hydrolysis: peptide 1 mM, 37° C., Glp production by HPLC, mean±S.D.
Protocol: as §1, §2
Kinetic analysis of the peptide library using HPLC—The ability of each peptide in the library to act as a TRH-DE substrate was assessed using HPLC. As an initial screen, 1 mM peptide was incubated with 0.8 μg TRH-DE in a total volume of 1 ml for 18 h at 37° C. Control samples were included in which peptide (1 mM) or Glp (0.2 mM-0.8 mM) were incubated under identical conditions in the absence of TRH-DE. TRH-DE activity was terminated by the addition of TFA (0.15% v/v) and samples were then analysed using HPLC as described previously (24). Products resulting from TRH-DE hydrolysis could be separated on a C-18 reverse-phase column (Hypersil, UK) using a linear gradient of 0-70% acetonitrile in 0.08% (v/v) TFA. The concentration of Glp formed by the action of TRH-DE on the peptide library was measured by UV absorbance at 206 nm with a quantitative detection limit of 0.1 mM for a 40 μl injection volume, employing a signal to noise ratio of 10. Following the incubation of each peptide with TRH-DE, evidence of Glp in the sample was taken to indicate that the peptide was a TRH-DE substrate.
The rates of hydrolysis for each of those peptides identified as substrates were then compared by measuring Gip production using microassays with shorter incubation times. In these assays peptide (1 mM) was incubated at 37° C. in a total volume of 100 μl. 0.8-3.2 μg TRH-DE and incubations times of 5 min to 18 h were used routinely. Measurements were made in triplicate. The rate of TRH-OH hydrolysis was also measured by this method.

[6] = system: TRH-DE; details: published observation (21); cited from earlier work
[7] = target: T1, TRH-DE; details: From Ref. 23 (inventor's publication); cited from earlier work
[8] = non-linear regression, five TRHAMC concentrations and at least three peptide concentrations, mean±S.D. (n=3)

Molecule	Ki [1, 8] [µM]	inhibition at 1000 µM ([1]; 5 μM TRHAMC substrate) [%]	hydrolysis by TRH-DE (release of Glp) [5]	substrate for TRH-DE [6]	Rate of hydrolysis [5]	other results
Cc1cc(=O)oc2cc(NC(=O)[C@@H]3CCCN3C(=O)[C@H](CC(N)=O)NC(=O)[C@@H]3CCC(=O)N3)ccc12 [Glp-Asn-ProAMC, Glp-Asn-Pro-7amido-4-methyl coumarin] ([pGlu]-Asn-Pro-{AMC})	0.97 ± 0.08	–	–	–	–	Ki ([1]; calculated from percent inhibition measured in duplicate at 5 μM substrate): 0.41 µM; mode of inhibition of TRH-DE ([1]; continuous assay, Lineweaver-Burk plot): simple competitive inhibitors; inhibition at 1 µM ([1]; peptide 1 μM, 5 μM TRHAMC substrate): 50%; reversibility and time dependence of inhibition ([1]; preincubation with TRH-DE up to 75 min at 37° C., Glp-Gln-ProNH2 400, Glp-Asn-ProNH2 160, Glp-Asn-ProAMC 1 μM): fully reversible and not time-dependent; solubility [2]: 1000 µg/mL (≈ 2010 µM); pKi [3]: 4.32±0.24; number of WDS compared with vehicle [4]: Neither TRH nor Glp-Asn-ProAMC alone produced a significantly greater number of WDS than vehicle
NC(=O)[C@@H]1CCCN1C(=O)[C@H](Cc1c[nH]c2ccccc12)NC(=O)[C@@H]1CCC(=O)N1 [Glp-Trp-ProNH2] ([pGlu]-Trp-Pro-NH2)	232 ± 26	71	No detectable Glp	–	–	–
NC(=O)[C@@H]1CCCN1C(=O)[C@H](CCC(=O)O)NC(=O)[C@@H]1CCC(=O)N1 [Glp-Glu-ProNH2] ([pGlu]-Glu-Pro-NH2)	–	17	No detectable Glp	is not	–	Ki ([1]; estimated from <20% inhibition at 1 mM peptide with the competitive inhibition relationship): > 1000 µM
Glp-His-ProOH	–	–	–	–	3.38 ± 0.18 (3) U mg^−1	Vmax ([5]; estimated from HPLC rates of hydrolysis using Vmax=vo{(Km+[S])/[S]}): 4.43 ± 0.24 (3) U mg^−1; Km [7]: 311 µM
NC(=O)[C@@H]1CCCN1C(=O)[C@@H](NC(=O)[C@@H]1CCC(=O)N1)c1ccccc1 [Glp-Phg-ProNH2] ([pGlu]-[Phg]-Pro-NH2)	356 ± 19	57	No detectable Glp	–	–	–
NC(=O)[C@@H]1CCCN1C(=O)[C@H](Cc1ccccc1)NC(=O)[C@@H]1CCC(=O)N1 [Glp-Phe-ProNH2] ([pGlu]-Phe-Pro-NH2)	–	–	–	is also a substrate for TRH-DE	1.56 ± 0.13 (5) U mg^−1	–
